Data as given in patent US9388164B2, “Methods of using pyruvate kinase activators” (AGIOS PHARMACEUTICALS, INC, priority 2011, dated 2016).

Key:
Type in all cases: biochemical
PKR R510Q = PKR R510Q (Homo sapiens, UniProt P30613, R510Q); assay: PKR R510Q Single Point Percent Activation Assay; conditions: compound at 1 μM; read-out: % Act. R510Q
Protocol: PKR R510Q Single Point Percent Activation Assay
(§1) A compound described herein was diluted with DMSO and tested at 1 μM concentration. The enzyme was diluted in 1× Buffer: (100 mM KCl, 50 mM Tris 7.5, 5 mM MgCl2, 1 mM DTT, 0.03% BSA). 2 μL of compound solution was first added into wells, and then 180 μL of enzyme solution was added. Assays were assembled except for ADP, and plates were stored for 60 minutes at RT. 20 μL ADP was added to start the assay and assay output was evaluated using OD340 at SpectraMax. The assay was run at room temperature.
PKR R510Q (40 ng/well), Tris pH 7.5 (50 mM), KCl (100 mM), MgCl2 (5 mM), ADP (0.2 mM), PEP (0.11 mM), NADH (180 μM), LDH (0.5 units, Sigma 59023), DTT (1 mM) and BSA (0.03%).

PKR wt = PKR wt (Homo sapiens, UniProt P30613); assay: PKR WT Single Point Percent Activation Assay; conditions: compound at 1 μM
Sequence of PKR wt (P30613 whole entry): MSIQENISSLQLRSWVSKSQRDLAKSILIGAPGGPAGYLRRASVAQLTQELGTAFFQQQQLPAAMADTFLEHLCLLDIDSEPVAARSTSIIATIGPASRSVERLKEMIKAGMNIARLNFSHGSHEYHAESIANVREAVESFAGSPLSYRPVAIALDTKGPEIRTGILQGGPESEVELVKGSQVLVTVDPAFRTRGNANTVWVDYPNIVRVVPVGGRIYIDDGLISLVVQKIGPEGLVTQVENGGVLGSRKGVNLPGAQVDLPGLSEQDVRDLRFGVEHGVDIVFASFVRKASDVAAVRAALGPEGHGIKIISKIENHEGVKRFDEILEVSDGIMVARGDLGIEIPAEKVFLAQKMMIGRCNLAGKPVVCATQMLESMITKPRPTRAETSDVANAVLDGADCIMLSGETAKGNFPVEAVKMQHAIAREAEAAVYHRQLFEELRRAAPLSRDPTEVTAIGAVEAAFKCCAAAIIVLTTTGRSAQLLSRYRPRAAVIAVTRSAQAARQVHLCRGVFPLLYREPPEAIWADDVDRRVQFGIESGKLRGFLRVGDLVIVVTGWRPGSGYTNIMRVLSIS
Protocol: PKR WT Single Point Percent Activation Assay
as §1
PKR wt (100 ng/well), Tris pH 7.5 (50 mM), KCl (100 mM), MgCl2 (5 mM), ADP (0.48 mM), PEP (0.15 mM), NADH (180 μM), LDH (0.5 units, Sigma 59023), DTT (1 mM) and BSA (0.03%).

PKR T384W = PKR T384W (Homo sapiens, UniProt P30613); assay: PKR T384W Single Point Percent Activation Assay; conditions: compound at 1 μM
Sequence of PKR T384W (P30613 whole entry T384M): as the sequence (P30613 whole entry) above, with T384M counted along it
Protocol: PKR T384W Single Point Percent Activation Assay
A compound described herein was diluted with DMSO and tested at 1 μM concentration. The enzyme was diluted in 1× Buffer: (100 mM KCl, 50 mM Tris 7.5, 5 mM MgCl2, 1 mM DTT, 0.03% BSA). 2 μL of compound solution was first added into wells, and then 180 μL enzyme solution was added. Assays were assembled except for ADP, and plates were stored for 60 minutes at RT. 20 μL ADP was added to start the assay and assay output was evaluated using OD340 at SpectraMax. The assay was run at room temperature.
PKR T384W soluble (300 ng/well), Tris pH 7.5 (50 mM), KCl (100 mM), MgCl2 (5 mM), ADP (0.08 mM), PEP (0.23 mM), NADH (180 μM), LDH (0.5 units, Sigma 59023), DTT (1 mM) and BSA (0.03%).

PKR R532W = PKR R532W (Homo sapiens, UniProt P30613, R532W); assay: PKR R532W Single Point Percent Activation Assay; conditions: compound at 1 μM; read-out: % Act. R532W
Sequence of PKR R532W (P30613 whole entry R532W): as the sequence (P30613 whole entry) above, with R532W counted along it
Protocol: PKR R532W Single Point Percent Activation Assay
as §1
PKR R532W (100 ng/well), Tris pH 7.5 (50 mM), KCl (100 mM), MgCl2 (5 mM), ADP (0.36 mM), PEP (0.1 mM), NADH (180 μM), LDH (0.5 units, Sigma 59023), DTT (1 mM) and BSA (0.03%).

Sequence of PKR R510Q (P30613 whole entry R510Q): as the sequence (P30613 whole entry) above, with R510Q counted along it

Compound	activation at 1 µM (PKR R510Q)	activation at 1 µM (PKR wt)	% Act. T384W (PKR T384W)	activation at 1 µM (PKR R532W)
O=C(OC1CN(C(=O)c2ccc(NS(=O)(=O)c3cccc4cccnc34)cc2)C1)c1ccccn1	101 to 500%	101 to 500%	B (a % activation at 1 μM of from 101 to 500)	1 to 100%
COC1(Cc2ccccc2)CN(C(=O)c2ccc(NS(=O)(=O)c3cccc4cccnc34)cc2)C1	101 to 500%	101 to 500%	B (a % activation at 1 μM of from 101 to 500)	101 to 500%
O=C(c1ccc(NS(=O)(=O)c2cccc3cccnc23)c(F)c1)N1CC(Oc2ccccc2)C1	101 to 500%	101 to 500%	B (a % activation at 1 μM of from 101 to 500)	101 to 500%
Cc1cc(C(=O)N2CC(N(C)Cc3ccccc3)C2)ccc1NS(=O)(=O)c1cccc2cccnc12	101 to 500%	101 to 500%	A (a % activation at 1 μM of from 1 to 100)	101 to 500%
Cc1cc(C(=O)N2CC(OC(=O)c3ccccn3)C2)ccc1NS(=O)(=O)c1cccc2cccnc12	101 to 500%	1 to 100%	A (a % activation at 1 μM of from 1 to 100)	1 to 100%
O=C(c1ccc(NS(=O)(=O)c2cccc3cccnc23)cc1)N1CC(Nc2ccccc2)C1	1 to 100%	1 to 100%	A (a % activation at 1 μM of from 1 to 100)	1 to 100%
COc1ccccc1NC1CN(C(=O)c2ccc(NS(=O)(=O)c3cccc4cccnc34)cc2)C1	101 to 500%	1 to 100%	A (a % activation at 1 μM of from 1 to 100)	1 to 100%
COc1ccccc1NC1CN(C(=O)c2ccc(NS(=O)(=O)c3cccc4cccnc34)c(C)c2)C1	101 to 500%	1 to 100%	A (a % activation at 1 μM of from 1 to 100)	1 to 100%
COc1ccccc1NC1CN(C(=O)c2ccc(NS(=O)(=O)c3cccc4cccnc34)c(F)c2)C1	1 to 100%	1 to 100%	A (a % activation at 1 μM of from 1 to 100)	1 to 100%
COc1ccccc1NC1CN(C(=O)c2ccc(S(=O)(=O)Nc3cccc4cccnc34)cc2)C1	101 to 500%	101 to 500%	A (a % activation at 1 μM of from 1 to 100)	101 to 500%
O=C(c1ccc(S(=O)(=O)Nc2cccc3cccnc23)cc1)N1CC(OCc2ccccc2)C1	101 to 500%	101 to 500%	B (a % activation at 1 μM of from 101 to 500)	1 to 100%
O=C(c1ccc(NS(=O)(=O)c2cccc3cccnc23)cc1)N1CC(NCc2ccccc2)C1	101 to 500%	101 to 500%	B (a % activation at 1 μM of from 101 to 500)	101 to 500%
COc1ncccc1NC1CN(C(=O)c2ccc(NS(=O)(=O)c3cccc4cccnc34)c(C)c2)C1	101 to 500%	101 to 500%	B (a % activation at 1 μM of from 101 to 500)	101 to 500%
COc1cccnc1NC1CN(C(=O)c2ccc(NS(=O)(=O)c3cccc4cccnc34)c(C)c2)C1	101 to 500%	101 to 500%	B (a % activation at 1 μM of from 101 to 500)	101 to 500%
COc1ccccc1OC1CN(C(=O)c2ccc(NS(=O)(=O)c3cccc4cccnc34)cc2OC)C1	1 to 100%	101 to 500%	B (a % activation at 1 μM of from 101 to 500)	101 to 500%
Cc1cc(C(=O)N2CC(Nc3ccncc3)C2)ccc1NS(=O)(=O)c1cccc2cccnc12	1 to 100%	101 to 500%	A (a % activation at 1 μM of from 1 to 100)	1 to 100%
COc1ccncc1NC1CN(C(=O)c2ccc(NS(=O)(=O)c3cccc4cccnc34)c(C)c2)C1	1 to 100%	101 to 500%	B (a % activation at 1 μM of from 101 to 500)	1 to 100%
COc1ccccc1OC1CN(C(=O)c2ccc(NS(=O)(=O)c3cccc4cccnc34)c(F)c2)C1	1 to 100%	101 to 500%	B (a % activation at 1 μM of from 101 to 500)	101 to 500%
Cc1cc(C(=O)N2CC(OC(=O)Nc3ccccn3)C2)ccc1NS(=O)(=O)c1cccc2cccnc12	101 to 500%	1 to 100%	A (a % activation at 1 μM of from 1 to 100)	101 to 500%
COc1cc(C(=O)N2CC(OC(=O)Nc3ccccn3)C2)ccc1NS(=O)(=O)c1cccc2cccnc12	101 to 500%	1 to 100%	A (a % activation at 1 μM of from 1 to 100)	1 to 100%
COc1cc(NS(=O)(=O)c2cccc3cccnc23)ccc1C(=O)N1CC(OC(=O)Nc2ccccn2)C1	101 to 500%	101 to 500%	B (a % activation at 1 μM of from 101 to 500)	101 to 500%
COc1cc(C(=O)N2CC(Oc3ccccc3OC)C2)ccc1NS(=O)(=O)c1cccc2cccnc12	101 to 500%	101 to 500%	B (a % activation at 1 μM of from 101 to 500)	101 to 500%
O=C(Nc1ccccn1)NC1CN(C(=O)c2ccc(NS(=O)(=O)c3cccc4cccnc34)cc2)C1	101 to 500%	101 to 500%	B (a % activation at 1 μM of from 101 to 500)	101 to 500%
O=C(Nc1ccccn1)OC1CN(C(=O)c2ccc(NS(=O)(=O)c3cccc4cccnc34)c(F)c2)C1	101 to 500%	101 to 500%	B (a % activation at 1 μM of from 101 to 500)	101 to 500%
CC(C)NC(=O)NC1CN(C(=O)c2ccc(NS(=O)(=O)c3cccc4cccnc34)cc2)C1	101 to 500%	101 to 500%	B (a % activation at 1 μM of from 101 to 500)	101 to 500%
Cc1cc(C(=O)N2CC(NC(=O)NC(C)C)C2)ccc1NS(=O)(=O)c1cccc2cccnc12	101 to 500%	101 to 500%	B (a % activation at 1 μM of from 101 to 500)	101 to 500%
O=C(c1ccc(NS(=O)(=O)c2cccc3cccnc23)cc1)N1CC(=Cc2ccccc2)C1	1 to 100%	1 to 100%	A (a % activation at 1 μM of from 1 to 100)	1 to 100%
